Source: PubChem BioAssay (NCI)
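All cell lines were grown in 96-well plates and treated with compound for 48 hours. Here, GI50 denotes the concentration required for 50% inhibition of growth. At the TGI there is no net growth.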

Legend:
Assay in all cases: NCI anticancer screen, dose series, 48 h
786-0 renal = test system: 786-0 renal
A498 renal = test system: A498 renal
A549 NSCLC = test system: A549 NSCLC
ACHN renal = test system: ACHN renal
BT-549 breast = test system: BT-549 breast
CAKI-1 renal = test system: CAKI-1 renal
CCRF-CEM leukemia = test system: CCRF-CEM leukemia
COLO 205 colon = test system: COLO 205 colon
DU-145 prostate = test system: DU-145 prostate
EKVX NSCLC = test system: EKVX NSCLC
HCC-2998 colon = test system: HCC-2998 colon
HCT-116 colon = test system: HCT-116 colon
HCT-15 colon = test system: HCT-15 colon
HL-60(TB) leukemia = test system: HL-60(TB) leukemia
HOP-62 NSCLC = test system: HOP-62 NSCLC
HOP-92 NSCLC = test system: HOP-92 NSCLC
HS 578T breast = test system: HS 578T breast
HT29 colon = test system: HT29 colon
IGROV1 ovarian = test system: IGROV1 ovarian
K-562 leukemia = test system: K-562 leukemia
KM12 colon = test system: KM12 colon
LOX IMVI melanoma = test system: LOX IMVI melanoma
M14 melanoma = test system: M14 melanoma
MALME-3M melanoma = test system: MALME-3M melanoma
MCF7 breast = test system: MCF7 breast
MDA-MB-231 breast = test system: MDA-MB-231 breast
MDA-MB-435 = test system: MDA-MB-435
MOLT-4 leukemia = test system: MOLT-4 leukemia
NCI-H226 lung = test system: NCI-H226 lung
NCI-H23 lung = test system: NCI-H23 lung
NCI-H460 lung = test system: NCI-H460 lung
NCI-H522 lung = test system: NCI-H522 lung
NCI/ADR-RES ovarian = test system: NCI/ADR-RES ovarian
OVCAR-3 ovarian = test system: OVCAR-3 ovarian
OVCAR-4 ovarian = test system: OVCAR-4 ovarian
OVCAR-5 ovarian = test system: OVCAR-5 ovarian
OVCAR-8 ovarian = test system: OVCAR-8 ovarian
PC-3 prostate = test system: PC-3 prostate
RPMI-8226 leukemia = test system: RPMI-8226 leukemia
RXF 393 renal = test system: RXF 393 renal
SF-268 CNS = test system: SF-268 CNS
SF-295 CNS = test system: SF-295 CNS
SF-539 CNS = test system: SF-539 CNS
SK-MEL-2 melanoma = test system: SK-MEL-2 melanoma
SK-MEL-28 melanoma = test system: SK-MEL-28 melanoma
SK-MEL-5 melanoma = test system: SK-MEL-5 melanoma
SK-OV-3 ovarian = test system: SK-OV-3 ovarian
SN12C renal = test system: SN12C renal
SNB-19 CNS = test system: SNB-19 CNS
SNB-75 CNS = test system: SNB-75 CNS
SW-620 colon = test system: SW-620 colon
T-47D breast = test system: T-47D breast
TK-10 renal = test system: TK-10 renal
U251 CNS = test system: U251 CNS
UACC-257 melanoma = test system: UACC-257 melanoma
UACC-62 melanoma = test system: UACC-62 melanoma
UO-31 renal = test system: UO-31 renal

COc1cc(C(=O)N2N=C(c3ccc(S(C)(=O)=O)cc3)CC2c2ccco2)cc(OC)c1OC (centres undefined)
GI50 (786-0 renal): 8.51 µM | TGI (786-0 renal): > 100 µM | GI50 (A498 renal): 5.15 µM | TGI (A498 renal): > 100 µM | GI50 (A549 NSCLC): 6.92 µM | TGI (A549 NSCLC): > 100 µM | GI50 (ACHN renal): 5.76 µM | TGI (ACHN renal): > 100 µM | GI50 (BT-549 breast): 5.2 µM | TGI (BT-549 breast): > 71.7 µM | GI50 (CAKI-1 renal): 4.94 µM | TGI (CAKI-1 renal): > 90.8 µM | GI50 (CCRF-CEM leukemia): 2.5 µM | TGI (CCRF-CEM leukemia): > 25.4 µM | GI50 (COLO 205 colon): 2.27 µM | TGI (COLO 205 colon): 10.1 µM | GI50 (DU-145 prostate): 7.04 µM | TGI (DU-145 prostate): > 78.1 µM | GI50 (EKVX NSCLC): 21.3 µM | TGI (EKVX NSCLC): > 100 µM | GI50 (HCC-2998 colon): 21 µM | TGI (HCC-2998 colon): > 100 µM | GI50 (HCT-116 colon): 3.77 µM | TGI (HCT-116 colon): > 100 µM | GI50 (HCT-15 colon): 4.13 µM | TGI (HCT-15 colon): > 100 µM | GI50 (HL-60(TB) leukemia): 1.41 µM | TGI (HL-60(TB) leukemia): 4.47 µM | GI50 (HOP-62 NSCLC): 26.7 µM | TGI (HOP-62 NSCLC): > 100 µM | GI50 (HOP-92 NSCLC): 3.65 µM | TGI (HOP-92 NSCLC): > 100 µM | GI50 (HS 578T breast): 5.42 µM | TGI (HS 578T breast): > 100 µM | GI50 (HT29 colon): 3.17 µM | TGI (HT29 colon): > 100 µM | GI50 (IGROV1 ovarian): 5.4 µM | TGI (IGROV1 ovarian): > 100 µM | GI50 (K-562 leukemia): 4.81 µM | TGI (K-562 leukemia): > 100 µM | GI50 (KM12 colon): 3.51 µM | TGI (KM12 colon): > 100 µM | GI50 (LOX IMVI melanoma): 5.85 µM | TGI (LOX IMVI melanoma): > 100 µM | GI50 (M14 melanoma): 5.81 µM | TGI (M14 melanoma): > 87.6 µM | GI50 (MALME-3M melanoma): 5.01 µM | TGI (MALME-3M melanoma): > 100 µM | GI50 (MCF7 breast): 2.89 µM | TGI (MCF7 breast): > 100 µM | GI50 (MDA-MB-231 breast): 11.2 µM | TGI (MDA-MB-231 breast): > 100 µM | GI50 (MDA-MB-435): 1.27 µM | TGI (MDA-MB-435): 7.27 µM | GI50 (MOLT-4 leukemia): 3.08 µM | TGI (MOLT-4 leukemia): > 100 µM | GI50 (NCI-H226 lung): > 57.3 µM | TGI (NCI-H226 lung): > 100 µM | GI50 (NCI-H23 lung): 15.2 µM | TGI (NCI-H23 lung): > 100 µM | GI50 (NCI-H460 lung): 3.51 µM | TGI (NCI-H460 lung): > 100 µM | GI50 (NCI-H522 lung): 3.95 µM | TGI (NCI-H522 lung): > 61.6 µM | GI50 (NCI/ADR-RES ovarian): 6.04 µM | TGI (NCI/ADR-RES ovarian): > 67.7 µM | GI50 (OVCAR-3 ovarian): 1.95 µM | TGI (OVCAR-3 ovarian): 5.46 µM | GI50 (OVCAR-4 ovarian): 7.45 µM | TGI (OVCAR-4 ovarian): > 100 µM | GI50 (OVCAR-5 ovarian): > 80.2 µM | TGI (OVCAR-5 ovarian): > 100 µM | GI50 (OVCAR-8 ovarian): 20.2 µM | TGI (OVCAR-8 ovarian): > 100 µM | GI50 (PC-3 prostate): 2.93 µM | TGI (PC-3 prostate): > 100 µM | GI50 (RPMI-8226 leukemia): 0.647 µM | TGI (RPMI-8226 leukemia): 4.36 µM | GI50 (RXF 393 renal): 4.74 µM | TGI (RXF 393 renal): 56 µM | GI50 (SF-268 CNS): 8.93 µM | TGI (SF-268 CNS): > 100 µM | GI50 (SF-295 CNS): 3.04 µM | TGI (SF-295 CNS): > 100 µM | GI50 (SF-539 CNS): 3.12 µM | TGI (SF-539 CNS): 17.4 µM | GI50 (SK-MEL-2 melanoma): 8.68 µM | TGI (SK-MEL-2 melanoma): > 100 µM | GI50 (SK-MEL-28 melanoma): 22.2 µM | TGI (SK-MEL-28 melanoma): > 100 µM | GI50 (SK-MEL-5 melanoma): 2.99 µM | TGI (SK-MEL-5 melanoma): > 63.2 µM | GI50 (SK-OV-3 ovarian): 4.9 µM | TGI (SK-OV-3 ovarian): > 100 µM | GI50 (SN12C renal): 12.3 µM | TGI (SN12C renal): > 100 µM | GI50 (SNB-19 CNS): 5.92 µM | TGI (SNB-19 CNS): > 100 µM | GI50 (SNB-75 CNS): 2.91 µM | TGI (SNB-75 CNS): > 46 µM | GI50 (SW-620 colon): 3.62 µM | TGI (SW-620 colon): > 100 µM | GI50 (T-47D breast): 3.79 µM | TGI (T-47D breast): > 100 µM | GI50 (TK-10 renal): 29 µM | TGI (TK-10 renal): > 100 µM | GI50 (U251 CNS): 5.09 µM | TGI (U251 CNS): > 100 µM | GI50 (UACC-257 melanoma): > 100 µM | TGI (UACC-257 melanoma): > 100 µM | GI50 (UACC-62 melanoma): 3.82 µM | TGI (UACC-62 melanoma): > 100 µM | GI50 (UO-31 renal): 7.23 µM | TGI (UO-31 renal): > 100 µM
